According to patent publication US20220079931A1, “ESTROGEN RECEPTOR PROTEIN DEGRADERS” (THE REGENTS OF THE UNIVERSITY OF MICHIGAN, priority 2019, published 2022):

Tests used:
[1] = system: primary human mammary epithelial cells; experiment: Cell proliferation in primary human mammary epithelial cells; type: cell-based
Procedure: Cell Growth Assay. Cells were seeded at 1500/well in 96 well plates overnight. One day after seeding, they were treated with indicated doses of compounds. The growth of the cells was evaluated by colorimetric WST-8 assay 4 days after the compound treatment following the instructions of the manufacturer, Cayman Chemical, Ann Arbor, Mich.
Fulvestrant achieves an Imax value of 43.8%. […] RAD1901, a previously reported SERD molecule^18, achieves an Imax value of 25.7%.

ERα = target: T1, ERα (Homo sapiens, UniProt P03372); experiment: ER degradation by Western blotting in MCF-7 cells; type: cell-based; parameters: host or cells: MCF-7
T1 sequence (P03372 1-595): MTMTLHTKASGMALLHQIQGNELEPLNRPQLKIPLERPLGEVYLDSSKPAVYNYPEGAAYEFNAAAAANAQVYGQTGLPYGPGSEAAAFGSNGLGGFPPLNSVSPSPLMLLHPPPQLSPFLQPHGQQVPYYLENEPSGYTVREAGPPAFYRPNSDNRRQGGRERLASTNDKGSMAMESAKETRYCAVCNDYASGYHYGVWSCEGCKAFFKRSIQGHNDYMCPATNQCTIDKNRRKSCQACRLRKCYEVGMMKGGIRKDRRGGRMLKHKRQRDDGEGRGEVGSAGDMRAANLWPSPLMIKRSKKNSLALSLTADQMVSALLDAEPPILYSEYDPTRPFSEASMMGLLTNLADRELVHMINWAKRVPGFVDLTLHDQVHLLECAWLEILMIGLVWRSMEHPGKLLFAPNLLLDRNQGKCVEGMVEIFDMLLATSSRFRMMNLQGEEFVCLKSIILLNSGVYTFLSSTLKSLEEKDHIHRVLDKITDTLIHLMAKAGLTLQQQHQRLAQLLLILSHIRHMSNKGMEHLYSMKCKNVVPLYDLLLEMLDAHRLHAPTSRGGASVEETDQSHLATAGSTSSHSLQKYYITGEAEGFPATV
Procedure: FIG. 1 is an image showing the Western blotting analysis of ER protein in MCF-7 cells treated with Compounds of the Disclosure and control compounds. Cells were treated with different compounds for 4 h and whole cell lysates were then analyzed by Western blotting to examine the level of ER protein. GADPH protein was used for the loading control. The numbers below the panel represent the ERα/GADPH ratio normalized with the DMSO control at 100.
FIG. 2 is an image showing the Western blotting analysis of ER protein in the MCF-7 cells treated with indicated compounds at 1 nM, 10 nM and 100 nM. MCF-7 cells were treated with different compounds for 4 h and whole cell lysates were analyzed by Western blotting to examine the level of ER protein. GADPH protein was used for the loading control. The numbers below the panel represent the ERα/GADPH ratio normalized with the DMSO control at 100.
FIG. 7 is an image showing the ERα degradation dose-response Western blotting for compound 32 at 4 h in MCF-7 cells.
FIG. 9 is an image showing the time course of ERα degradation by Western blotting by compound 32 (30 nM) and fulvestrant (30 nM) in the MCF-7 cells.
Cell Culture. Human breast cancer cell lines MCF-7 (ATCC® HTB-22™) and T47D (ATCC® HTB-133™) were purchased from the American Type Culture Collection (ATCC), Manassas, Va., and maintained and cultured in Dulbecco's Modified Eagle's medium (DMEM) containing 10% fetal bovine serum, 1 unit/ml of penicillin and 1 μg/ml of streptomycin. Cells with 3-8 passages after purchase were used in experiments as indicated.
Western Blot Analysis. Western blot analysis was performed essentially as described previously (Hu et al, 2015, PMID: 26358219). Cells treated with indicated compounds were lysed in Radioimmunoprecipitation Assay Protein Lysis and Extraction Buffer (25 mmol/L Tris.HCl, pH 7.6, 150 mmol/L NaCl, 1% Nonidet P-40, 1% sodium deoxycholate, and 0.1% sodium dodecyl sulfate) containing proteinase inhibitor cocktail (Roche Diagnostics, Mannheim, Germany). After determination of protein concentration by BCA assay (Fisher Scientific, Pittsburgh, Pa.), equal amounts of total protein were electrophoresed through 10% SDS-polyacrylamide gels. The separated protein bands were transferred onto PVDF membranes (GE Healthcare Life Sciences, Marlborough, Mass.) and blotted against different antibodies, as indicated. The human estrogen receptor a antibodies (AB16460) were purchased from Abeam, Inc., Cambridge, Mass. The membranes were reblotted with horseradish peroxidase-conjugated anti-glyceraldehyde-3-phosphate dehydrogenase antibody (G9295) from Sigma-Aldrich Corporation, St. Louis, Mo. The blots were scanned and the band intensities were quantified using GelQuant.NET software as described in biochemlabsolutions.com. The relative mean intensity of target proteins was expressed after normalization to the intensity of glyceraldehyde-3-phosphate dehydrogenase bands from individual repeats.

CCN(CCCCCOCC(=O)N[C@H](C(=O)N1C[C@H](O)C[C@H]1C(=O)N[C@@H](C)c1ccc(-c2scnc2C)cc1)C(C)(C)C)CCOc1ccc(C(=O)c2c(-c3ccc(O)cc3)sc3cc(O)ccc23)cc1 [compound 32, (2S,4R)-1-((S)-2-(2-((5-(Ethyl(2-(4-(6-hydroxy-2-(4-hydroxyphenyl)benzo[b]thiophene-3-carbonyl)phenoxy)ethyl)amino)pentyl)oxy)acetamido)-3,3-dimethylbutanoyl)-4-hydroxy-N—((S)-1-(4-(4-methylthiazol-5-yl)phenyl)ethyl)pyrrolidine-2-carboxamide]
cell proliferation inhibition [1]: does not exhibit the cell proliferation inhibition effects | reduction of ER protein level at 1 h (ERα; 30 nM, 1 h treatment): > 80% | ER degradation at the 3 h time-point (ERα; 30 nM, 3 h): essentially complete ER degradation | DC50 (ERα; 4 h treatment, read-out: DC50 (concentration to achieve 50% of protein degradation)): 0.17 nM | maximum ER degradation (ERα; at concentrations as low as 5 nM): > 95%
